Data: patent US7683055B2, “Lanthionine-related compounds for the treatment of inflammatory diseases” (Oklahoma Medical Research Foundation, priority 2006, dated 2010)

How the values were obtained:
EOC-20 microglial cells [1] = assay: PGE2 production in TNFα+IFNγ-stimulated EOC-20 microglial cells; format: cell-based, mouse; conditions: stimulated by TNFα+IFNγ
EOC-20 microglial cells [2] = assay: LPS-stimulated nitrite production in EOC-20 microglia; format: cell-based, mouse
Method: In some embodiments, the compounds of the invention function is a cell-type specific, stimulus-specific, or condition-specific fashion. […] In contrast, when EOC-20 cells or RAW264.7 macrophages were stimulated with bacterial lipopolysaccharide (LPS; E. coli serotype 0127:B8) for 24-48 h and nitrite and cell viability were assessed. LKE inhibited cytokine-induced nitrite accumulation with a similar efficacy in both cell types (see FIGS. 9A & 9B).
Mouse EOC-20 microglia (American Tissue Type Collection, Gaithersville Md. USA) (Hensley et al., 2003; Walker et al., 1995) were grown in DMEM containing 20% L929 fibroblast-supplemented medium. Nitrite production by cytokine stimulated microglia was measured in cell culture medium using the Griess diazotization reaction as previously reported (Hensley et al., 2003; West et al., 2004).

human PB monocytes = assay: intracellular TNFα in human peripheral blood monocytes by flow cytometry; format: cell-based
From the text: Identification of TNFα positive monocytes in peripheral blood by flow cytometry: PB monocytes expressing TNF in response to LPS or PG can be identified and counted using flow cytometry with fluorescent antibodies to stain TNFα. To identify the percentage of monocytes expressing TNFα, PB was stimulated with LPS or PG, stained for surface markers to distinguish monocytes from other leukocytes, and stained for intracellular TNFα to identify monocytes expressing TNFα. The percentage of monocytes positive for TNFα was compared among samples stimulated with LPS, PG, with and without pretreatment with (R)-LKE1, and non-stimulated samples.
The fluorescent antibodies used to identify monocytes surface markers were anti-human CD14-phycoerythrin (PE) and andtiCD16b-fluorescein isothyocyanate (FITC), based on staining intensity for each marker. Monocytes are positive for CD14 and negative for CD16b. This method of separating monocytes from neutrophils was confirmed by sorting cells based on CD14/CD16b intensity, preparing slides, staining with May-Grunwald Giemsa and confirming by morphology.
For analysis of CD14 positive, CD16b negative cells we used dot plots. We first excluded lymphocytes from the analysis by their forward scatter (FSC) and side scatter (SSC) properties, drawing a monocyte/neutrophil gate to exclude lymphocytes (not shown). We then identified CD14+, (y-axis) CD16b− (x-axis) cells by comparison with an unstained sample.
A third dye, PE-Cye7 was used for intracellular cytokine staining of TNFα. The TNFα positive monocytes were identified on a second dot plot of SSC vs. TNFα PE-Cye7 for monocytes only. Cells were counted as positive for TNFα expression if the intensity of PE-Cye7 was greater than in the non-stimulated control. The percent of TNFα positive monocytes was calculated using number positive/total number of monocytes.
PB, heparinized, was diluted 1:3 with DMEM. Diluted blood was placed in 1.0 ml aliquots into wells of a non tissue culture plate. PB was pre-incubated at 37° C. for one hour with LKE (1 mM) or the diluent DMSO (10 μl). […]

CCOC(=O)[C@@H]1CSCC(C(=O)O)=N1 [(R)-LKE1]
suppression of PGE2 production (EOC-20 microglial cells [1]): does not to suppress prostaglandin E2 (PGE2) production
cytotoxicity (cell viability) (EOC-20 microglial cells [2]; EOC-20 cells or RAW264.7 macrophages, LPS 24-48 h): No cytotoxicity was observed
inhibition of LPS-stimulated nitric oxide production (EOC-20 microglial cells [2]; EOC-20 microglial cells, LPS): inhibited LPS stimulated nitric oxide production
percent monocytes staining positively for TNFα (human PB monocytes; 1 mM pre-incubation, PG 10 ug/ml): 0.76%
percent monocytes staining positively for TNFα (human PB monocytes; 1 mM pre-incubation, Ultra Pure LPS 1 μg/ml): 25.9%
percent monocytes staining positively for TNFα (human PB monocytes; 1 mM, no stimulus): 0.96%
